≈ marks a conversion by molar mass, not a printed value. Like-named read-outs stand apart in the source and are kept apart here.
Assay: Solubility of agrochemical active ingredient in oil comprising ionic liquid
Format: physicochemical
Conditions: thermodynamic from solid, 21° C.
Description: Alternatively, the oil, which comprised the ionic liquid, was saturated with the active ingredient and the soluble fraction of active ingredient was quantified by means of HPLC. In the first line of the tables, in each case the weight ratios of oil to IL are given.

SMILES: Cn1cc(C(=O)Nc2ccccc2-c2cc(F)c(F)c(F)c2)c(C(F)F)n1 [fluxapyroxad, 3-(difluoromethyl)-1-methyl-N-(3′,4′,5′-trifluorobiphenyl-2-yl)pyrazole-4-carboxamide]
- solubility (Cetiol B oil comprising ionic liquid, 21 °C, oil or lipid, Oil/IL 60/40 weight ratio, IL N-butyl-N′-methylimidazolium dimethylphosphate, read-out: Solubility of fluxapyroxad with Cetiol ® B as oil): 43.1 mg/mL
- solubility (Cetiol B oil comprising ionic liquid, 21 °C, oil or lipid, Oil/IL 60/40 weight ratio, IL N-ethyl-N′-ethylimidazolium propionate, read-out: Solubility of fluxapyroxad with Cetiol ® B as oil): 50.8 mg/mL
- solubility (Cetiol B oil comprising ionic liquid, 21 °C, oil or lipid, Oil/IL 60/40 weight ratio, IL N-ethyl-N′-methylimidazolium acetate, read-out: Solubility of fluxapyroxad with Cetiol ® B as oil): 54.9 mg/mL
- solubility (Cetiol B oil comprising ionic liquid, 21 °C, oil or lipid, Oil/IL 60/40 weight ratio, IL N-ethyl-N′-methylimidazolium dibutylphosphate, read-out: Solubility of fluxapyroxad with Cetiol ® B as oil): 46 mg/mL
- solubility (Cetiol B oil comprising ionic liquid, 21 °C, oil or lipid, Oil/IL 60/40 weight ratio, IL N-ethyl-N′-methylimidazolium heptanoate, read-out: Solubility of fluxapyroxad with Cetiol ® B as oil): 50 mg/mL
- solubility (Cetiol B oil comprising ionic liquid, 21 °C, oil or lipid, Oil/IL 60/40 weight ratio, IL N-ethyl-N′-methylimidazolium octanoate, read-out: Solubility of fluxapyroxad with Cetiol ® B as oil): 49.5 mg/mL
- solubility (Cetiol B oil comprising ionic liquid, 21 °C, oil or lipid, Oil/IL 60/40 weight ratio, IL N-propyl-N′-propylimidazolium acetate, read-out: Solubility of fluxapyroxad with Cetiol ® B as oil): 49.6 mg/mL
- solubility (Cetiol B oil comprising ionic liquid, 21 °C, oil or lipid, Oil/IL 60/40 weight ratio, IL Tetrabutylammonium [2-(2-methoxyethoxy)ethoxy]acetate, read-out: Solubility of fluxapyroxad with Cetiol ® B as oil): 40.8 mg/mL
- solubility (Cetiol B oil comprising ionic liquid, 21 °C, oil or lipid, Oil/IL 80/20 weight ratio, IL Cholinium octanoate, read-out: Solubility of fluxapyroxad with Cetiol ® B as oil): 20.8 mg/mL
- solubility (Cetiol B oil comprising ionic liquid, 21 °C, oil or lipid, Oil/IL 80/20 weight ratio, IL N-butyl-N′-methylimidazolium dimethylphosphate, read-out: Solubility of fluxapyroxad with Cetiol ® B as oil): 29 mg/mL
- solubility (Cetiol B oil comprising ionic liquid, 21 °C, oil or lipid, Oil/IL 80/20 weight ratio, IL N-ethyl-N′-methylimidazolium dibutylphosphate, read-out: Solubility of fluxapyroxad with Cetiol ® B as oil): 31.1 mg/mL
- solubility (Cetiol B oil comprising ionic liquid, 21 °C, oil or lipid, Oil/IL 80/20 weight ratio, IL N-ethyl-N′-methylimidazolium heptanoate, read-out: Solubility of fluxapyroxad with Cetiol ® B as oil): 35.9 mg/mL
- solubility (Cetiol B oil comprising ionic liquid, 21 °C, oil or lipid, Oil/IL 80/20 weight ratio, IL N-ethyl-N′-methylimidazolium octanoate, read-out: Solubility of fluxapyroxad with Cetiol ® B as oil): 34.3 mg/mL
- solubility (Cetiol B oil comprising ionic liquid, 21 °C, oil or lipid, Oil/IL 80/20 weight ratio, IL N-propyl-N′-propylimidazolium acetate, read-out: Solubility of fluxapyroxad with Cetiol ® B as oil): 35.4 mg/mL
- solubility (Cetiol B oil comprising ionic liquid, 21 °C, oil or lipid, Oil/IL 80/20 weight ratio, IL Tetrabutylammonium [2-(2-methoxyethoxy)ethoxy]acetate, read-out: Solubility of fluxapyroxad with Cetiol ® B as oil): 27.5 mg/mL
- solubility (Cetiol B oil comprising ionic liquid, 21 °C, oil or lipid, Oil/IL 90/10 weight ratio, IL N-butyl-N′-methylimidazolium acetate, read-out: Solubility of fluxapyroxad with Cetiol ® B as oil): 23.7 mg/mL
- solubility (Cetiol B oil comprising ionic liquid, 21 °C, oil or lipid, Oil/IL 90/10 weight ratio, IL N-ethyl-N′-ethylimidazolium propionate, read-out: Solubility of fluxapyroxad with Cetiol ® B as oil): 24.2 mg/mL
- solubility (Cetiol B oil comprising ionic liquid, 21 °C, oil or lipid, Oil/IL 90/10 weight ratio, IL N-ethyl-N′-methylimidazolium acetate, read-out: Solubility of fluxapyroxad with Cetiol ® B as oil): 25.6 mg/mL
- solubility (Cetiol B oil comprising ionic liquid, 21 °C, oil or lipid, Oil/IL 90/10 weight ratio, IL Tetrabutylammonium [2-(2-methoxyethoxy)ethoxy]acetate, read-out: Solubility of fluxapyroxad with Cetiol ® B as oil): 16 mg/mL
- solubility (Cetiol B oil without ionic liquid, 21 °C, oil or lipid, 100 Oil (Cetiol B, no IL), read-out: Solubility of fluxapyroxad with Cetiol ® B as oil): 3 mg/mL (≈ 7.87 mM)
- solubility (neat Agnique AMD 12 (N,N-dimethyldodecanamide) oil, 21 °C, oil or lipid, 100 Oil (Agnique AMD 12, no IL), read-out: Solubility of fluxapyroxad with Agnique AMD 12 ® (N,N-dimethyldodecanamide, lauryl N,N-dimethylamide) as oil): 21 mg/mL (≈ 55.1 mM)
- solubility (neat N-butyl-N′-methylimidazolium acetate (ionic liquid), organic solvent or mixture, 100 IL (no oil), IL N-butyl-N′-methylimidazolium acetate, read-out: Solubility of fluxapyroxad with Agnique AMD 12 ® (N,N-dimethyldodecanamide, lauryl N,N-dimethylamide) as oil): 1 mg/mL (≈ 2.62 mM)
- solubility (neat N-ethyl-N′-ethylimidazolium propionate (ionic liquid), 21 °C, organic solvent or mixture, 100 IL (no oil), IL N-ethyl-N′-ethylimidazolium propionate, read-out: Solubility of fluxapyroxad with Solvesso ® 200 ND as oil): 45.7 mg/mL (≈ 120 mM)
- solubility (neat N-ethyl-N′-methylimidazolium acetate (ionic liquid), organic solvent or mixture, 100 IL (no oil), IL N-ethyl-N′-methylimidazolium acetate, read-out: Solubility of fluxapyroxad with Agnique AMD 12 ® (N,N-dimethyldodecanamide, lauryl N,N-dimethylamide) as oil): 1 mg/mL (≈ 2.62 mM)
- solubility (neat Solvesso 200 ND (oil), 21 °C, oil or lipid, 100 Oil (Solvesso 200 ND, no IL), read-out: Solubility of fluxapyroxad with Solvesso ® 200 ND as oil): 1.5 mg/mL (≈ 3.93 mM)
- solubility (neat cholinium octanoate (ionic liquid), 21 °C, organic solvent or mixture, 100 IL (no oil), IL Cholinium octanoate, read-out: Solubility of fluxapyroxad with Cetiol ® B as oil): 5 mg/mL (≈ 13.1 mM)
- solubility (neat ionic liquid (no oil), 21 °C, organic solvent or mixture, 100 IL (no oil), IL N-butyl-N′-methylimidazolium acetate, read-out: Solubility of fluxapyroxad with Cetiol ® B as oil): 42.4 mg/mL (≈ 111 mM)
- solubility (neat ionic liquid (no oil), 21 °C, organic solvent or mixture, 100 IL (no oil), IL N-butyl-N′-methylimidazolium dimethylphosphate, read-out: Solubility of fluxapyroxad with Cetiol ® B as oil): 5 mg/mL (≈ 13.1 mM)
- solubility (neat ionic liquid (no oil), 21 °C, organic solvent or mixture, 100 IL (no oil), IL N-ethyl-N′-ethylimidazolium propionate, read-out: Solubility of fluxapyroxad with Cetiol ® B as oil): 45.7 mg/mL (≈ 120 mM)
- solubility (neat ionic liquid (no oil), 21 °C, organic solvent or mixture, 100 IL (no oil), IL N-ethyl-N′-methylimidazolium acetate, read-out: Solubility of fluxapyroxad with Cetiol ® B as oil): 47.2 mg/mL (≈ 124 mM)
- solubility (neat ionic liquid (no oil), 21 °C, organic solvent or mixture, 100 IL (no oil), IL N-ethyl-N′-methylimidazolium dibutylphosphate, read-out: Solubility of fluxapyroxad with Cetiol ® B as oil): 9.5 mg/mL (≈ 24.9 mM)
- solubility (neat ionic liquid (no oil), 21 °C, organic solvent or mixture, 100 IL (no oil), IL N-ethyl-N′-methylimidazolium heptanoate, read-out: Solubility of fluxapyroxad with Cetiol ® B as oil): 26.9 mg/mL (≈ 70.5 mM)
- solubility (neat ionic liquid (no oil), 21 °C, organic solvent or mixture, 100 IL (no oil), IL N-ethyl-N′-methylimidazolium octanoate, read-out: Solubility of fluxapyroxad with Cetiol ® B as oil): 20.8 mg/mL (≈ 54.5 mM)
- solubility (neat ionic liquid (no oil), 21 °C, organic solvent or mixture, 100 IL (no oil), IL N-propyl-N′-propylimidazolium acetate, read-out: Solubility of fluxapyroxad with Cetiol ® B as oil): 36.7 mg/mL (≈ 96.2 mM)
- solubility (neat ionic liquid (no oil), 21 °C, organic solvent or mixture, 100 IL (no oil), IL Tetrabutylammonium [2-(2-methoxyethoxy)ethoxy]acetate, read-out: Solubility of fluxapyroxad with Cetiol ® B as oil): 9.5 mg/mL (≈ 24.9 mM)
- solubility (neat ionic liquid (no oil), organic solvent or mixture, 100 IL (no oil), IL N-ethyl-N′-methylimidazolium isononanoate, read-out: Solubility of fluxapyroxad with Agnique AMD 12 ® (N,N-dimethyldodecanamide, lauryl N,N-dimethylamide) as oil): 9.5 mg/mL (≈ 24.9 mM)
- solubility (oil or lipid, Oil/IL 90/10 weight ratio, IL N-butyl-N′-methylimidazolium acetate, read-out: Solubility of fluxapyroxad with Agnique AMD 12 ® (N,N-dimethyldodecanamide, lauryl N,N-dimethylamide) as oil): 36 mg/mL
- solubility (oil/ionic liquid mixture, oil or lipid, Oil/IL 90/10 weight ratio, IL N-ethyl-N′-methylimidazolium isononanoate, read-out: Solubility of fluxapyroxad with Agnique AMD 12 ® (N,N-dimethyldodecanamide, lauryl N,N-dimethylamide) as oil): 32 mg/mL
- solubility (organic solvent or mixture, 100 IL (no oil), IL Tetrabutylammonium [2-(2-methoxyethoxy)ethoxy]acetate, read-out: Solubility of fluxapyroxad with Agnique AMD 12 ® (N,N-dimethyldodecanamide, lauryl N,N-dimethylamide) as oil): 9.5 mg/mL (≈ 24.9 mM)

Reference: patent publication US9949475B2, “Composition comprising active ingredient, oil and ionic liquid” (priority 2011, dated 2018)
